In patent US5585367A (priority 1990, dated 1996):
≈ marks a conversion by molar mass, not a printed value. Like-named read-outs stand apart in the source and are kept apart here.

Legend:
[1] = Single oral doses to healthy volunteers, tolerability and safety; type: in vivo, human
Procedure: Pharmaceutical grade ADA in gelatin capsules, each containing 500 mg, was administered as single oral doses to healthy volunteers to determine its tolerability and safety. […] These changes were reversible within 4-6 hours from intake.

HIV-2 ROD = assay: Inhibition of HIV replication in MT4 cells; type: cell-based; settings: 0.4 μgr/ml to 250.0 μgr/ml
[2] = target: T1, HIV-1 reverse transcriptase (RT) (Human immunodeficiency virus type 1 BH10, UniProt P03366); assay: Acellular in-vitro inhibition of reverse transcriptase (polyrC-oligodG template-primer-complex); type: biochemical
T1 construct: mature RT from Gag-Pol polyprotein (pr160Gag-Pol)
Procedure: ADA in a liquid medium was tested in an acellular in-vitro system for any inhibitory effect on HIV-1 reverse transcriptase (RT) using the polyrC-oligodG template-primer-complex. […] From concentrations of 60 μgr/ml upward, there is a 50% inhibition of RT. […] Therefore, ADA inhibits HIV replication with an as yet unknown but original mode of action.

[3] = single dose of 3 g, one volunteer
HIV-1 Wild D = assay: Inhibition of HIV replication in PBL's; type: cell-based; settings: Human immunodeficiency virus 1
HIV-1 Wild E = assay: Inhibition of HIV replication in PBL's; type: cell-based; settings: Human immunodeficiency virus 1
HIV-1 Wild B = assay: Inhibition of HIV replication in PBL's; type: cell-based; settings: Human immunodeficiency virus 1
HIV-1 LAI/IIIB [4] = assay: Inhibition of HIV replication in MT4 cells; type: cell-based
HIV-1 [5] = type: cell-based
[6] = Treatment of three sound volunteers for 30 days; type: in vivo, human; settings: 1500 mgr a day (three portions of 500 mgr)
Procedure: Three sound volunteers were treated for 30 days with 1500 mgr a day of a azobisformamide in three portions of 500 mgr.

HIV-1 [7] = type: cell-based; remark: listed apart in the source
HIV-1 LAI/IIIB [8] = assay: Inhibition of HIV replication in PBL's; type: cell-based; settings: PBLs; 0.4 μgr/ml to 250.0 μgr/ml
Tat = Tat antagonism
[9] = B. L. OSER et al. (1965); cited from earlier work
clinical [10] = settings: human, in vivo, po
clinical [11] = settings: human, in vivo, po; remark: listed apart in the source
CD4 lymphocyte [12] = assay: Treatment of one patient with stage IV AIDS
CD4 lymphocyte [13] = assay: Treatment of four patients with advanced AIDS, CD4 lymphocyte counts (FIG. 1); type: in vivo, human; settings: all dosage regimens combined
Procedure: Four patients with advanced AIDS have been treated with ADA. One patient has been treated during two periods, i.e., treated was restarted after a return to baseline subsequent to the withdrawal of ADA. The patients received capsules containing 500 mg. The dosage regimen was 500 mg three times a day except during the second treatment period in the patient who is also the patient of Example 27 where the dosage regimen was increased to 1 gram three times a day. The graph represents the median value of all CD4 lymphocyte counts measured in the patients. All dosage regimens are combined. There were five periods of ADA treatment. Due to the small number of values, medians were calculated by carrying forward the last values of the patients with no data point in the corresponding treatment week. Values of patients who dropped out of the study were carried forward. The linear regression is represented by the equation Y=77.2 +4.8 X, where Y is the absolute CD4 […] and X is the number of weeks after start of ADA treatment. The correlation coefficient is 0.79.

HIV-1 Wild F = assay: Inhibition of HIV replication in PBL's; type: cell-based; settings: Human immunodeficiency virus 1, Wild F (resistant to AZT, syncytium inducer)
HIV-1 Wild C = assay: Inhibition of HIV replication in PBL's; type: cell-based; settings: Human immunodeficiency virus 1
wild HIV-1 strains = assay: Inhibition of HIV replication, wild HIV-1 strains; type: cell-based; settings: for IC90: Human immunodeficiency virus 1, wild strains from patients
HIV-1 Wild G = assay: Inhibition of HIV replication in PBL's; type: cell-based; settings: Human immunodeficiency virus 1, Wild G (resistant to AZT, syncytium inducer)
[14] = Tolerability and effectiveness of single doses; type: in vivo, human; settings: single doses of between 7 and 140 mg per kg body weight
[15] = single oral doses, one volunteer

With `NC(=O)N=NC(N)=O` [ADA, 1,1'-azobisformamide] the “adverse effects on hematological and chemical parameters in blood and urine” value ([1]; 40 mg/kg or 60 mg/kg) was “No adverse effects were observed”, the “adverse effects on blood pressure, pulse, or respiratory rate” value ([1]; any of the tested dosages) was “No adverse effects were observed” and the “glutathione in peripheral blood” value ([1]; from doses of 40 mg/kg) was “slightly depressed”. The “methemoglobin reduces [reductase] in peripheral blood” value ([1]; from doses of 40 mg/kg) was “slightly depressed”, the “reversibility of the changes, time from intake” value ([1]; from doses of 40 mg/kg) was 4 to 6 h and the tolerability ([1]; single oral dosages of up to 60 mg per kg body weight) was “well tolerated”. For the same compound, the methemoglobin [1, 15] was “dose-related increase in methemoglobin”, the “return of methemoglobin to normal” value [1, 15] was “within half an hour” and the “time of methemoglobin Cmax after intake” value [1, 15] was 1 to 1.5 h. The “inhibition of the replication of HIV-2 (ROD)” value (HIV-2 ROD) was “inhibits the replication”, the RT inhibition ([2]; at concentrations up to the IC90) was “not an RT-inhibitor” and the “inhibition of RT” value ([2]; from concentrations of 60 μgr/ml upward) was 50%. The absorption and excretion [3] was “can be absorbed and even excreted in its active form”, the IC50 (HIV-1 Wild D) was 10 µg/mL (≈ 86.1 µM) and the IC90 (HIV-1 Wild D) was 18.1 µg/mL (≈ 156 µM). It also gave an IC50 (HIV-1 Wild E) of 8.3 µg/mL (≈ 71.5 µM), an IC90 (HIV-1 Wild E) of 18.4 µg/mL (≈ 159 µM) and an IC50 (HIV-1 Wild B) of 11.6 µg/mL (≈ 99.9 µM). The IC90 (HIV-1 Wild B) was 18.6 µg/mL (≈ 160 µM), the IC50 (HIV-1 LAI/IIIB [4]; Human immunodeficiency virus 1, IIIB, MT4, MT4 cells infected with HIV-1 strain LAI/IIIB, read-out: lowest observed IC50) was 1.6 µg/mL (≈ 13.8 µM) and the “inhibition of the replication of HIV-1” value (HIV-1 LAI/IIIB [4]; MT4 cells, 0.4 μgr/ml to 250.0 μgr/ml) was “inhibits the replication”. The cytopathogenic effect (HIV-1 [5]) was “No cytopathogenic effect has been observed”, the hematological parameters [6] was “remained perfectly normal” and the secondary effect [6] was “No secondary effect was reported”. For the same compound, the “protection of cellular cultures against the infectious power of HIV-1” value (HIV-1 [7]) was “protects the cellular cultures against the infectious power of HIV-1”, the flu-like syndrome (140 mg/kg, from 6 hours after intake, lasted several hours) was “flu-like syndrome was observed” and the “adverse effects such as changes in hemodynamic parameters or subjective well-being” value (lower doses (35 and 70 mg/kg)) was “No adverse effects”. For the same compound, the “inhibition of the replication of HIV-1 (strain IIIB(LAI))” value (HIV-1 LAI/IIIB [8]) was “inhibit the replication”, the Tat antagonism (Tat) was “not a Tat-antagonist” and the “toxicity for the humans” value [9] was “absence of toxicity”. The Tmax (clinical [10]) was 1 to 1.5 h, the MTD (clinical [11]) was 140 mg/kg and the “absolute CD4 lymphocyte count” value (CD4 lymphocyte [12]; 500 mg three times a day, 26-week period, from 77) was 144 cells/mm^3. The diarrhea (CD4 lymphocyte [12]; 12 weeks after restarting ADA) was “free of diarrhea”, the weight (CD4 lymphocyte [12]; 12 weeks after restarting ADA) was “gained considerable weight” and the “weight and diarrhea after withdrawal of ADA” value (CD4 lymphocyte [12]; RT medication without ADA) was “lost weight and developed intractable diarrhea”. For the same compound, the “CD4 lymphocyte count after withdrawal of ADA” value (CD4 lymphocyte [12]; RT medication without ADA, within two months) was “returned to baseline”, the CD4 lymphocyte count (CD4 lymphocyte [12]; fifteen weeks after restarting ADA) was 190 cells/mm^3 and the “adverse effects that could be drug-related” value (CD4 lymphocyte [12]; occasional increases up to 2 grams three times a day) was “No adverse effects”. For the same compound, the CD4 lymphocyte count (CD4 lymphocyte [12]; restart at 1 gram three times a day, within two weeks) was 144 cells/mm^3, the “correlation coefficient of the CD4 regression” value (CD4 lymphocyte [13]) was 0.79 and the IC50 (HIV-1 Wild F) was 6.4 µg/mL (≈ 55.1 µM). For the same compound, the IC90 (HIV-1 Wild F) was 19 µg/mL (≈ 164 µM), the IC50 (HIV-1 Wild C) was 11.1 µg/mL (≈ 95.6 µM) and the IC90 (HIV-1 Wild C) was 18 µg/mL (≈ 155 µM). The “toxicity against VERO cells” value (VERO cells) was “No toxicity against VERO cells was observed”, the IC90 (wild HIV-1 strains; read-out: IC90 range) was 17.4 to 21.2 µg/mL (≈ 150 to 183 µM) and the IC90 (wild HIV-1 strains; read-out: median IC90 (complete inhibition, ≥90% inhibition)) was 18 µg/mL (≈ 155 µM). The “inhibition of the replication of wild HIV-1 strains” value (wild HIV-1 strains; PBLs, including strains phenotypically resistant to AZT, 0.4 to 250.0 μgr/ml) was “inhibit the replication”, the IC50 (HIV-1 Wild G) was 11.2 µg/mL (≈ 96.5 µM) and the IC90 (HIV-1 Wild G) was 21.2 µg/mL (≈ 183 µM). For the same compound, the “toxical effect on Supt-1 cells” value (Supt-1 cells) was “No toxical effect has been noted” and the tolerability and effectiveness [14] was “tolerable and effective”.
